Results on five compounds are retold here after ChEMBL document CHEMBL3621199, “Structure-based approaches towards identification of fragments for the low-druggability ATAD2 bromodomain” (Medchemcomm, 2014).

In the test the target is T1, ATPase family AAA domain-containing protein 2 (Homo sapiens, UniProt Q6PL18).
T1 sequence (Q6PL18 whole entry): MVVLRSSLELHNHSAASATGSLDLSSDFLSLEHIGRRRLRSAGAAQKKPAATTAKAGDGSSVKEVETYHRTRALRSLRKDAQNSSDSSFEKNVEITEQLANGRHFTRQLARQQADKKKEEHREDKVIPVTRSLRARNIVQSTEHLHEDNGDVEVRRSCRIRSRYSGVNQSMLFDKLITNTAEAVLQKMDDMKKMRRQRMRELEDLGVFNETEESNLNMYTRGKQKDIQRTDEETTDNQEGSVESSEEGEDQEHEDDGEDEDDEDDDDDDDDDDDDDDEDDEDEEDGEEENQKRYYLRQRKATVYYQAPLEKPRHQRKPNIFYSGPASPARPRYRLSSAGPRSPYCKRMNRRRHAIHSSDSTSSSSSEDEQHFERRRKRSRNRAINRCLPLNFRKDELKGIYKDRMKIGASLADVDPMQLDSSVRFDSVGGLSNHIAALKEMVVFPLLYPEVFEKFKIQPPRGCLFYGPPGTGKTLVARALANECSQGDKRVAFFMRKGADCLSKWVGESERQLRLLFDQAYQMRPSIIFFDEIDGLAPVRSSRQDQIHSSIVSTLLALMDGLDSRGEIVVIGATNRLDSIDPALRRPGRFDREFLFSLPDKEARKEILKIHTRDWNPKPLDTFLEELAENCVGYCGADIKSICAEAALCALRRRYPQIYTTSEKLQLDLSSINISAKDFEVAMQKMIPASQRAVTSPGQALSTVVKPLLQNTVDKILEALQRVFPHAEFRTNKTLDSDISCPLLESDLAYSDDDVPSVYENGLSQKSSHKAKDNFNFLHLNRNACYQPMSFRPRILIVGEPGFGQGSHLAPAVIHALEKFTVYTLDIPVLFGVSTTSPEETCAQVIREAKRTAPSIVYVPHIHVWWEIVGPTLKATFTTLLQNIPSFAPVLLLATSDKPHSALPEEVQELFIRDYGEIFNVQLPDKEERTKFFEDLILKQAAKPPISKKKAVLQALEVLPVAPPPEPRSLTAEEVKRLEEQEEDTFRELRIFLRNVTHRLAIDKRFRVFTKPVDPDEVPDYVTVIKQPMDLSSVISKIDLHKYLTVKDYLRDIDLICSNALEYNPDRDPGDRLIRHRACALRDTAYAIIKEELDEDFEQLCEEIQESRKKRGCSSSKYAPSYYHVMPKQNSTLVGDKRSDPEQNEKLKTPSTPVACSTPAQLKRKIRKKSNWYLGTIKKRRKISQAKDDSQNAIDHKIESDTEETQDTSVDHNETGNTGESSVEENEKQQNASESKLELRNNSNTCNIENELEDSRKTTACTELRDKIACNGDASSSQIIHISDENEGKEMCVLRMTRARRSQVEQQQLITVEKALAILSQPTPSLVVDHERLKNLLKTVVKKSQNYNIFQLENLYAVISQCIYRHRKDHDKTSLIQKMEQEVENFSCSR
As to the kind of experiment: Binding affinity to recombinant human ATAD2 (982 to 1108 amino acids) bromodomain […] at methyl groups of leucine, valine, isoleucine, methionine expressed in Escherichia coli BL21 (DE3) by NMR titration.

Molecules are shown by their SMILES.

As for `Cc1cn([C@@H]2O[C@H](CN)[C@@H](O)[C@H]2O)c(=O)[nH]c1=O`, the Kd stood at 17 mM.

Turning to `Cc1c[nH]c(=O)[nH]c1=O` [THYMINE], the Kd amounted to 10 mM.

As to `Cc1cn([C@H]2CC[C@@H](CO)O2)c(=O)[nH]c1=O`, the Kd is 18 mM.

Consider `Cc1cn([C@@H]2O[C@H](CO)[C@@H](O)[C@H]2O)c(=O)[nH]c1=O`, for which the Kd stood at 21 mM.

As to `Cc1cn([C@H]2C[C@H](O)[C@@H](CO)O2)c(=O)[nH]c1=O` [DOXRIBTIMINE], the Kd worked out at 10 mM.

The term Kd denotes the free concentration of one partner at which half of the binding sites on the other are occupied at equilibrium, for simple one-to-one binding.
